Experimental data as given in ChEMBL document CHEMBL1135576, “Synthesis and biological characterization of L-N(6)-(1-iminoethyl)lysine 5-tetrazole-amide, a prodrug of a selective iNOS inhibitor” (J Med Chem, 2002).

Assays:
[1] = biological target: T1, Nitric oxide synthase, inducible (Homo sapiens, UniProt P35228); experiment: The concentration required for inhibition of Human inducible nitric oxide synthase (iNOS) isoform
Nitric oxide synthase 1 = Nitric oxide synthase 1 (Homo sapiens, UniProt P29475); experiment: The concentration required for inhibition of Human Neuronal nitric oxide synthase (nNOS)
[2] = biological target: T1, Nitric oxide synthase, inducible; experiment: The concentration required for inhibition of Human inducible nitric oxide synthase (iNOS) isoform, expressed as IC50.

Nitric oxide synthase 1, sequence (P29475 whole entry, canonical isoform): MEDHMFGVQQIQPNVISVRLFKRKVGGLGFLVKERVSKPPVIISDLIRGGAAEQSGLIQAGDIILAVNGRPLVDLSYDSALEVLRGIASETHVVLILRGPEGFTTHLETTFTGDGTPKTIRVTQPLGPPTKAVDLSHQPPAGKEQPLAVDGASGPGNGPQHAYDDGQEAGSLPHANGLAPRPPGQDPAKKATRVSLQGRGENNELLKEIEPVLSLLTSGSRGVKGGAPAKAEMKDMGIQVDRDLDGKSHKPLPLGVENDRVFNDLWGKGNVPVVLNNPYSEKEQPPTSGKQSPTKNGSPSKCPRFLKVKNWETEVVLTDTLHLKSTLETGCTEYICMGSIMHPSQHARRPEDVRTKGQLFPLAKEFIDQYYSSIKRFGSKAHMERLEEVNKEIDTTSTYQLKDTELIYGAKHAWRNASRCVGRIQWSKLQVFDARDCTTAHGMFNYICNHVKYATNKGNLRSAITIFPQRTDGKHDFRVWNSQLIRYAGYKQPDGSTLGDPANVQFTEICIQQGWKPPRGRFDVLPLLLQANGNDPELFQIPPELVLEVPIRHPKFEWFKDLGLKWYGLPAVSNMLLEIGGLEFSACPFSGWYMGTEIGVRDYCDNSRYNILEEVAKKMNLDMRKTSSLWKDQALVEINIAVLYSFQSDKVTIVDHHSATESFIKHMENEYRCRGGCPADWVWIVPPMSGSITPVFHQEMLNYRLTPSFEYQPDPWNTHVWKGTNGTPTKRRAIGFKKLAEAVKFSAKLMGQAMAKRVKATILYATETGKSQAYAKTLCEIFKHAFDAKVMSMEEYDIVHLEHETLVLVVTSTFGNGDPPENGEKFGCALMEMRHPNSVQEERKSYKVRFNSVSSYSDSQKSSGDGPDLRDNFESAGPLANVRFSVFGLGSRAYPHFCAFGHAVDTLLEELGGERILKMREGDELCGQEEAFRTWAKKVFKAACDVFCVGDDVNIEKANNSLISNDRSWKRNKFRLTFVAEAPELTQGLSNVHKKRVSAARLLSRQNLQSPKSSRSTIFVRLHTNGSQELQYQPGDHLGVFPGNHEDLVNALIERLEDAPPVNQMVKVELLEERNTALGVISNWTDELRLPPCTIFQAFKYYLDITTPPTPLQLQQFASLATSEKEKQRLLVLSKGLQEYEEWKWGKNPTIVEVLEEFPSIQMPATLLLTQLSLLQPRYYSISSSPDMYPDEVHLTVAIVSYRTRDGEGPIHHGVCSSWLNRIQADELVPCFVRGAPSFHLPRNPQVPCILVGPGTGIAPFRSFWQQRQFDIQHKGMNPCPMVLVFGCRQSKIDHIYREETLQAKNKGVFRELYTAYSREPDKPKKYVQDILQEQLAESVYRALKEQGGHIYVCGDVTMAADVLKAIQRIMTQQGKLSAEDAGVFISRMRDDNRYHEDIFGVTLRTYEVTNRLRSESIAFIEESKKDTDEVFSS
T1 sequence (P35228 whole entry, canonical isoform): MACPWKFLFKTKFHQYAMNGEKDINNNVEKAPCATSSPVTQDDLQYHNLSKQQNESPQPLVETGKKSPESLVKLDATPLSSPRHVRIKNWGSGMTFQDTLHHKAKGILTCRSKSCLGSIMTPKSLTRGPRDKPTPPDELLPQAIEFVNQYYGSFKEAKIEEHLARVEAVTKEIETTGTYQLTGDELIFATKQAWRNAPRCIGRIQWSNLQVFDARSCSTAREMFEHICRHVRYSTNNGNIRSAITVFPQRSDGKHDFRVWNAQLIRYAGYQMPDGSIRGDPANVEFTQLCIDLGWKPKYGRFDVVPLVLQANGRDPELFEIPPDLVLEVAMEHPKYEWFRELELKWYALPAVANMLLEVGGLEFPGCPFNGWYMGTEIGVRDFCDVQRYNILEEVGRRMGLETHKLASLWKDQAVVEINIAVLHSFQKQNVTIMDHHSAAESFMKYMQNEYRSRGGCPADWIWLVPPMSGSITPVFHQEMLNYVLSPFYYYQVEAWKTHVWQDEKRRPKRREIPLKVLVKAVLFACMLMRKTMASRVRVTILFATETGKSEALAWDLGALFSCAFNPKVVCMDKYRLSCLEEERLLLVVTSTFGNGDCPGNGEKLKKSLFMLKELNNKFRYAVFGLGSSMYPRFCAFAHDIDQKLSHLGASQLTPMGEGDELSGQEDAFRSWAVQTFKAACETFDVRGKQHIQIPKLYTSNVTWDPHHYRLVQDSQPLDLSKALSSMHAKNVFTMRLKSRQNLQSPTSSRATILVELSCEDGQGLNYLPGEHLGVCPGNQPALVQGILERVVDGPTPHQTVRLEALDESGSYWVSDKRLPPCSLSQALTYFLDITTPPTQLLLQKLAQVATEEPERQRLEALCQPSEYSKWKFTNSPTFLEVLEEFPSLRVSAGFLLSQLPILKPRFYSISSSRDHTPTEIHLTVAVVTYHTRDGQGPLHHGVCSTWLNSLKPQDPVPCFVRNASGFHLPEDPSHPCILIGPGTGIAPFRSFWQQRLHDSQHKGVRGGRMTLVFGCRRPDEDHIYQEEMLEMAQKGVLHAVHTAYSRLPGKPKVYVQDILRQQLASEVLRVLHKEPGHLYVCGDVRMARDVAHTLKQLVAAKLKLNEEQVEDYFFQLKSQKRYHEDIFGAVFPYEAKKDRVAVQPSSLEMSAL

| SMILES | IC50 [1] [µM] | IC50 (Nitric oxide synthase 1) [µM] | IC50 [2] [µM] |
| --- | --- | --- | --- |
| CC(=N)NCCCC[C@H](N)C(=O)O | 5.9 | 35 | – |
| CC(=N)NCCCC[C@H](N)C(=O)Nc1nnn[nH]1 | – | > 1850 | > 1850 |
